One data set relates to 143B/EB virus-TK cells. Kind of data set: cells. The note with it: read-out: CC50 143B/EB Virus-TK. The source says: (§1) At first, a primer was designed on the basis of the data base information of NCBI, followed by extracting DNA from B95a cells (J. Virol. 1990; 64(2): 700-5), and the TK gene of an EB virus was amplified by PCR method and cloned in the multicloning site of an expression plasmid vector pCI-neo (pCI-EB-TKneo). Similarly, human-TK gene was also amplified by PCR method and cloned (pCI-huTKneo). Whether the cloned gene fragment was a desired gene or not was judged by determining the base sequence.
(§2) Then, TK-defect human osteosarcoma cells (143B) was transfected by lipofection method (Proc. Natl. Acad. Sci. USA 1987 November; 84(21): 7413-7) with the plasmid vector capable of expressing EB virus-TK gene or the plasmid vector capable of expressing human-TK gene, namely, pCI-EB-TKneo or pCI-huTKneo, and cells having each plasmid introduced therein were selected by the use of neomycin.
(§3) The drug sensitivity of 143B/EB virus-TK, 143B/hu-TK, 143B TK(−) cells and EB virus persistent infection cells was determined on the basis of the cytotoxicity of each drug. That is, cells (143B/EB virus-TK, 143B/hu-TK and 143B TK(−) cells: 5×10^4 cells/100 μl; EB virus persistent infection cells: 20×10^4 cells/100 μl) were added to 96-well flat-bottom culture plates containing 100 μl of various concentrations of each drug. After 5 days of culture, the number of surviving cells was determined by MTT [3-(4,5-dimethylthiazol-2-yl)-2,5-diphenyltetrazolium bromide] assay. The cytotoxicity of the test drugs is expressed in terms of a concentration (CC50) at which the cell viability was decreased to 50%.

Data set [1] can be described thus: MTT cytotoxicity assay, cell having human-TK gene introduced. Format: cell-based. The note with it: human.
From the text: as §1, §2, §3
For orientation: Tetrazolium assays rely on reduction of a dye to a coloured formazan, in cell work by metabolically active cells.

A further data set deals with B95a cells. The data set can be described thus: MTT cytotoxic effect on EB virus infection cancer cells (B95a). Format: cell-based. As to conditions: expression of TK +, MTT assay. On the procedure: as §3
(§4) The cytotoxic effect of the medicinal agent of the present invention on EB virus infection cancer cells such as NC37 cells was investigated by MTT assay. […] However, neither of them was effective in cells in which EB virus-TK gene had not been expressed.

A further data set relates to NC37 cells. The data set can be described thus: MTT cytotoxic effect on EB virus infection cancer cells (NC37). Format: cell-based. As to conditions: NC37, expression of TK +, MTT assay. As for the experimental part: as §3, §4
The next data set has as its system Raji cells. The data set can be described thus: MTT cytotoxic effect on EB virus infection cancer cells (Raji). Format: cell-based. As to conditions: expression of TK −, MTT assay. As for the experimental part:
as §3, §4

In a further data set the test system is Namalwa cells. Kind of data set: MTT cytotoxic effect on EB virus infection cancer cells (Namalwa). Format: cell-based. As to conditions: expression of TK −, MTT assay. On the procedure:
as §3, §4

A further data set deals with HS-Sultan cells. Kind of data set: MTT cytotoxic effect on EB virus infection cancer cells (HS-Sultan). Format: cell-based. The note with it: expression of TK −, MTT assay. As for the experimental part:
as §3, §4

The next data set has as its system KAI3 cells. Kind of data set: MTT assay on cells with a chronic active EB virus infectious disease. Format: cell-based. On the procedure:
as §3
A chronic active EB virus infectious disease is an unfavorable infectious disease caused by infection of not B cells but natural killer T cells (NKT cells) with an EB virus. As such a chronic infection cell strain, KAI3 cells (Clin. Exp. Immunol. 1999 March; 115(3): 385-92) were purchased from Health Science Research Resources Bank, and the effect of the medicinal agent of the present invention on them was investigated by MTT assay. GCV was used as a control agent.

In a further data set the test system is 143B/hu-TK cells. The data set can be described thus: MTT cytotoxicity assay, cell having human-TK gene introduced. Format: cell-based.
From the text: as §1, §2, §3

Another data set deals with EB virus. The data set can be described thus: Acute infection of B lymphocytes with EB virus, EB virus DNA by real-time PCR. Format: cell-based. The note with it: B lymphocytes of a healthy person, cultured 2 weeks, PBMC#1287 and PBMC#5926, FIG. 2. On the procedure: B lymphocytes were separated from the blood of a healthy person. The B lymphocytes were infected with an EB virus in the presence of the medicinal agent of the present invention and cultured for 2 weeks. Thereafter, the infected B cells were recovered and then washed, followed by extraction of DNA. The amount of EB virus DNA in the B lymphocytes was determined by real-time PCR and taken as a virus copy number.
Background: Quantitative PCR measures a nucleic acid by following its amplification.

[2] abbreviates: MTT assay, 5 days of culture, read-out: CC50 143B/hu-TK.

Where two headings read alike, the source gives them in different places.

Results on eight compounds are retold here after patent US20120225837A1, “MEDICINAL AGENT FOR DISEASE ASSOCIATED WITH EPSTEIN-BARR VIRUS, AND METHOD FOR SCREENING OF THE MEDICINAL AGENT” (Kyoto University, priority 2007, published 2012).

Take `O=c1[nH]c(=O)n([C@H]2C[C@H](O)[C@@H](CO)O2)cc1C=CBr` [BVDU, 5-bromovinyl-2′-deoxyuridine]: the CC50 in the data set with 143B/EB virus-TK cells (Homo sapiens, 143B, 120 h) was found to be 122 µM. The CC50 at 5 days in data set [1] (setting [2]) is above 300 µM.

Turning to `Nc1nc2c(ncn2COCCO)c(=O)[nH]1` [ACV, acyclovir], in data set [1], the CC50 at 5 days is above 100 µM.

For `Nc1nc(O)c2ncn(COC(CO)CO)c2n1` [GCV, ganciclovir], in the data set with 143B/EB virus-TK cells (Homo sapiens, 143B, 120 h), the CC50 was above 100 µM. Besides, in data set [1], the CC50 at 5 days is above 100 µM. The “Cytotoxic effect on EB virus infection cancer cells” value with B95a cells is 36 µM; in the data set on NC37 cells it was 27 µM; in the data set with Raji cells, 55 µM; with Namalwa cells it was above 100 µM; with HS-Sultan cells, above 100 µM. Moreover, the “Effect on cells with a chronic active EB virus infectious disease” value with KAI3 cells is 105 µM.

Regarding `O=c1[nH]c(=O)n([C@H]2C[C@H](O)[C@@H](CO)O2)cc1F` [5FdU, 5-fluoro-2′-deoxyuridine], the CC50 with 143B/EB virus-TK cells (Homo sapiens, 143B, 120 h) was determined as 0.4 µM. The CC50 at 5 days in data set [1] was 0.27 µM.

Regarding “1-(2-deoxy-2-fluoro-4-thio-β-D-arabinofuranosyl)cytosine [4′-S-FMAC]”, the CC50 stood at 0.066 µM in the data set with 143B/EB virus-TK cells (MTT assay, 5 days of culture) and 0.04 µM in the data set on 143B/hu-TK cells (setting [2]).

As for `Cc1cn(C2(C#N)C[C@H](O)[C@@H](CO)O2)c(=O)[nH]c1=O` (stereo partly shown) [1′-CN-dT, 1-(C-cyano-2-deoxy-ribofuranosyl)thymine], the CC50 was above 100 µM in the data set with 143B/EB virus-TK cells (MTT assay, 5 days of culture) and above 100 µM with 143B/hu-TK cells.

With `O=c1[nH]c(=O)n([C@@H]2O[C@H](CO)[C@@H](O)[C@@H]2O)cc1C=CBr` [BvaraU, 1-β-D-arabinofuranosyl-5-bromovinyluracil], the CC50 in the data set on 143B/EB virus-TK cells (Homo sapiens, 143B, 120 h) is above 200 µM. In data set [1], this compound came in with a CC50 at 5 days above 200 µM.

In the case of `Cc1cn([C@@H]2S[C@H](CO)[C@@H](O)[C@@H]2F)c(=O)[nH]c1=O` [Medicinal agent of the invention, 1-(2-deoxy-2-fluoro-4-thio-β-D-arabinofuranosyl)-5-methyluracil], the CC50 in the data set with 143B/EB virus-TK cells (Homo sapiens, 143B, 120 h) turned out to be 0.11 µM. The CC50 at 5 days in data set [1] is above 300 µM. For the same compound, the “Cytotoxic effect on EB virus infection cancer cells” value is 2.2 µM in the data set on B95a cells; 2.1 µM in the data set on NC37 cells; 22 µM with Raji cells; above 100 µM with Namalwa cells; above 100 µM in the data set on HS-Sultan cells. Moreover, the “Effect on cells with a chronic active EB virus infectious disease” value in the data set with KAI3 cells was 4.7 µM. Also, the “Amount of EB virus DNA in the B lymphocytes (virus copy number)” value with EB virus is “reduces the amount of EB virus DNA in the B lymphocytes and inhibits new infection”.
